Activity calls are given as the source filed them. No rule for the calls is given here.
Test system: rodent carcinogenicity bioassays, tumor incidence
Test: CCRIS carcinogenicity studies
In short: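 NCI-built, expert-reviewed records of carcinogenicity and related test outcomes (mutagenicity, tumor promotion/inhibition) compiled from published and report sources, historical span 1985-2011, not updated.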

CC(C)C(C(=O)OC(C#N)c1cccc(Oc2ccccc2)c1)c1ccc(Cl)cc1 (configuration not stated)
carcinogen call (Species: MOUSE, Strain/Sex: B6C3F1/FEMALE, Route: ORAL, Dose: 0, 10, 50, 250, 1250 PPM IN THE DIET FOR 2 YR (STUDY DURATION: 2 YR), Dose: 0, 10, 50, 250, 1250 PPM IN THE DIET FOR 2 YR (STUDY DURATION: 2 YR)): inactive; negative | carcinogen call (Species: MOUSE, Strain/Sex: B6C3F1/MALE, Route: ORAL, Dose: 0, 10, 50, 250, 1250 PPM IN THE DIET FOR 2 YR (STUDY DURATION: 2 YR), Dose: 0, 10, 50, 250, 1250 PPM IN THE DIET FOR 2 YR (STUDY DURATION: 2 YR)): inactive; negative | carcinogen call (Species: MOUSE, Strain/Sex: C57BL/FEMALE, Route: INTRAGASTRIC, Dose: 0, 40, 80 MG/KG IN ARACHIS OIL 5/WK FOR 104 WK (STUDY DURATION: 120 WK), Dose: 0, 40, 80 MG/KG IN ARACHIS OIL 5/WK FOR 104 WK (STUDY DURATION: 120 WK)): inactive; negative | carcinogen call (Species: MOUSE, Strain/Sex: C57BL/MALE, Route: INTRAGASTRIC, Dose: 0, 40, 80 MG/KG IN ARACHIS OIL 5/WK FOR 104 WK (STUDY DURATION: 120 WK), Dose: 0, 40, 80 MG/KG IN ARACHIS OIL 5/WK FOR 104 WK (STUDY DURATION: 120 WK)): inactive; negative | carcinogen call (Species: RAT, Strain/Sex: SPRAGUE-DAWLEY/MALE,FEMALE, Route: ORAL): inactive; negative | carcinogen call (Species: Rat, Strain/Sex: Sprague-Dawley/Male and female (93/Experimental group and 183/Control group), Route: Oral, Dose: 0, 1, 5, 25, 250 ppm in diet for 2 yr, study duration 2 yr, Dose: 0, 1, 5, 25, 250 ppm in diet for 2 yr, study duration 2 yr): inactive; negative

C[C@H](CCC(=O)N(CCS(=O)(=O)O)N=O)[C@H]1CCC2C3C(C[C@H](O)[C@@]21C)[C@@]1(C)CC[C@@H](O)C[C@H]1C[C@H]3O (some centres not stated)
carcinogen call (Species: RAT, Strain/Sex: F344/MALE, Route: GAVAGE, Dose: 0, 10 MG IN 50 µL DMSO 5 D/WK FOR 6 WK (STUDY DURATION: 108 WK), Tumor Site: Type of Lesion: LIVER: CARCINOMA): active; positive

O=[Si]=O
carcinogen call (Species: MOUSE, Strain/Sex: STRAIN-A/MALE, Route: INTRATRACHEAL, Dose: 0, 9.75 MG/KG IN SALINE 1/WK FOR 15 WK (STUDY DURATION: 20 WK)): inactive; negative | carcinogen call (Species: RAT, Strain/Sex: F344/FEMALE, Route: INHALATION, Dose: 0, 50 MG/M3 6 HR/D 5 D/WK FOR UP TO 24 MO (STUDY DURATION: 24 MO), Tumor Site: Type of Lesion: LUNG: CARCINOMA OR ADENOMA): active; positive | carcinogen call (Species: RAT, Strain/Sex: F344/MALE,FEMALE, Route: INHALATION, Dose: 0, 1 MG/M3 6 HR/D 5 D/WK FOR 24 MO (STUDY DURATION: 25.5 MO), Tumor Site: Type of Lesion: LUNG: TUMOR): active; positive | carcinogen call (Species: RAT, Strain/Sex: F344/MALE, Route: INHALATION, Dose: 0, 50 MG/M3 6 HR/D 5 D/WK FOR UP TO 24 MO (STUDY DURATION: 24 MO)): inactive; negative | carcinogen call (Species: RAT, Strain/Sex: INBRED-W/MALE, FEMALE, Route: INTRAPERITONEAL, Dose: 20 MG ALKALINE-WASHED MIN-U-SIL CRYSTALS (A COMMERCIAL FINE QUARTZ, 99% PURE) IN 0.4 ML SALINE AUTOCLAVED SUSPENSION (ST, Tumor Site: Type of Lesion: HEMATOPOIETIC SYSTEM: THYMOMA OR LYMPHOSARCOMA, LYMPHOMA): active; positive | carcinogen call (Species: RAT, Strain/Sex: INBRED-W/MALE, FEMALE, Route: INTRAPLEURAL, Dose: 20 MG ALKALINE-WASHED CRYSTALS (CRISTABOLITE FROM QUARTZ EXPOSED TO HIGH TEMPERATURE) IN A 0.4 ML SALINE AUTOCLAVED SUSP, Tumor Site: Type of Lesion: HEMATOPOIETIC SYSTEM: MALIGNANT HISTIOCYTIC LYMPHOMA, THYMOMA OR LYMPHOSARCOMA, LYMPHOMA): active; positive | carcinogen call (Species: RAT, Strain/Sex: INBRED-W/MALE, FEMALE, Route: INTRAPLEURAL, Dose: 20 MG ALKALINE-WASHED CRYSTALS <5 µM IN SIZE IN A 0.4 ML SALINE AUTOCLAVED SUSPENSION INTO RIGHT AXILLA (STUDY DURATION:, Tumor Site: Type of Lesion: HEMATOPOIETIC SYSTEM: MALIGNANT HISTIOCYTIC LYMPHOMA, MALIGNANT TUMOR): active; positive | carcinogen call (Species: RAT, Strain/Sex: INBRED-W/MALE, FEMALE, Route: INTRAPLEURAL, Dose: 20 MG ALKALINE-WASHED MIN-U-SIL CRYSTALS (A COMMERCIAL FINE QUARTZ, 99% PURE) IN 0.4 ML SALINE AUTOCLAVED SUSPENSION INT, Tumor Site: Type of Lesion: HEMATOPOIETIC SYSTEM: LYMPHOMA): active; positive | carcinogen call (Species: Rat, Strain/Sex: Wistar/Female (48/group), Route: Intratracheal, Dose: 3 mg of 0.09-0.2 um particles given as 10 instillations before wk 26, study duration 112 wk or no treatment, Tumor Site: Type of Lesion: Lung: Bronchiolo-alveolar adenoma (2/37 experimental animals vs 0/46 control animals)): active; positive, low incidence of benign tumors.

CCC(=O)Oc1ccc(/C(CC)=C(\CC)c2ccc(OC(=O)CC)cc2)cc1
carcinogen call (Species: RAT, Route: SUBCUTANEOUS, Tumor Site: Type of Lesion: PITUITARY GLAND): active; positive

CCn1c2ccccc2c2cc(N)ccc21
carcinogen call (Species: MOUSE, Strain/Sex: B6C3F1/FEMALE, Route: ORAL, Dose: 0, 800, 1200 PPM IN DIET FOR 78 WK (STUDY DURATION: 95-97 WK), Dose: 0, 800, 1200 PPM IN DIET FOR 78 WK (STUDY DURATION: 95-97 WK), Tumor Site: Type of Lesion: LIVER: HEPATOCELLULAR CARCINOMA): active; positive | carcinogen call (Species: MOUSE, Strain/Sex: B6C3F1/MALE, Route: ORAL, Dose: 0, 800, 1200 PPM IN DIET FOR 78 WK (STUDY DURATION: 94-96 WK), Dose: 0, 800, 1200 PPM IN DIET FOR 78 WK (STUDY DURATION: 94-96 WK), Tumor Site: Type of Lesion: LIVER: HEPATOCELLULAR CARCINOMA, HEPATOCELLULAR ADENOMA OR CARCINOMA): active; positive | carcinogen call (Species: RAT, Strain/Sex: F344/FEMALE, Route: ORAL, Dose: 0, 800, 2000 PPM IN DIET FOR 78 WK (STUDY DURATION: 105-110 WK), Dose: 0, 800, 2000 PPM IN DIET FOR 78 WK (STUDY DURATION: 105-110 WK), Tumor Site: Type of Lesion: LIVER: NEOPLASTIC NODULE OR HEPATOCELLULAR CARCINOMA, UTERUS OR ENDOMETRIUM: ADENOCARCINOMA (NOS), EAR (ZYMBAL GLAND): S, Tumor Site: Type of Lesion: LIVER: NEOPLASTIC NODULE OR HEPATOCELLULAR CARCINOMA, UTERUS OR ENDOMETRIUM: ADENOCARCINOMA (NOS), EAR (ZYMBAL GLAND): S): active; positive | carcinogen call (Species: RAT, Strain/Sex: F344/MALE, Route: ORAL, Dose: 0, 800, 2000 PPM IN DIET FOR 78 WK (STUDY DURATION: 104-109 WK), Dose: 0, 800, 2000 PPM IN DIET FOR 78 WK (STUDY DURATION: 104-109 WK), Tumor Site: Type of Lesion: INTEGUMENTARY SYSTEM: BASAL CELL OR SQUAMOUS CELL CARCINOMA OR SQUAMOUS CELL PAPILLOMA, LIVER: HEPATOCELLULAR CARCINOMA): active; positive

CCN(CC(F)(F)F)N=O
carcinogen call (Species: RAT, Strain/Sex: SPRAGUE-DAWLEY/MALE, Route: GAVAGE, Dose: 7.5, 15, 30, 60 MG/KG IN VEGETABLE OIL 2/WK, Dose: 7.5, 15, 30, 60 MG/KG IN VEGETABLE OIL 2/WK, Tumor Site: Type of Lesion: ESOPHAGUS: CARCINOMA, NASAL CAVITY: SQUAMOUS CELL CARCINOMA): active; positive

C=C/C=C\C1C2/C=C/CC(=O)O[C@@]34C[C@@H](C)[C@]5(O)C6C=C(C)C(=O)[C@@]6(O)CC(CO)=C[C@H]5[C@@H]3[C@@]4(C)COC(=O)C2C2C(/C=C/C=C/C=C/CCC)C12 (some centres not stated)
carcinogen call (Species: MOUSE, Strain/Sex: CD-1/FEMALE (15), Route: DERMAL, Dose: 0, 2 UG IN 0.1 ML OF METHANOL 2/WK FOR 16 WK BEGINNING 1 WK POST CARCINOGEN DOSE THEN 5 UG 2/WK FOR 13 WK (STUDY DURATIO): inactive; negative

O=C(O)CC[N+](=O)[O-]
carcinogen call (Species: MOUSE, Strain/Sex: B6C3F1/FEMALE, Route: GAVAGE, Dose: 0, 0.375, 0.75 MG/ANIMAL/DAY FOR 104 WK (STUDY DURATION: 104-105 WK), Dose: 0, 0.375, 0.75 MG/ANIMAL/DAY FOR 104 WK (STUDY DURATION: 104-105 WK)): inactive; negative | carcinogen call (Species: MOUSE, Strain/Sex: B6C3F1/MALE, Route: GAVAGE, Dose: 0, 0.375, 0.75 MG/ANIMAL/DAY FOR 104 WK (STUDY DURATION: 104-105 WK), Dose: 0, 0.375, 0.75 MG/ANIMAL/DAY FOR 104 WK (STUDY DURATION: 104-105 WK)): inactive; negative | carcinogen call (Species: RAT, Strain/Sex: F344/FEMALE, Route: GAVAGE, Dose: 0, 0.6, 1.2 MG/ANIMAL/DAY FOR 110 WK (STUDY DURATION: 111 WK), Dose: 0, 0.6, 1.2 MG/ANIMAL/DAY FOR 110 WK (STUDY DURATION: 111 WK)): inactive; negative | carcinogen call (Species: RAT, Strain/Sex: F344/MALE, Route: GAVAGE, Dose: 0, 0.425, 0.85 MG/ANIMAL/DAY FOR 110 WK (STUDY DURATION: 111 WK), Dose: 0, 0.425, 0.85 MG/ANIMAL/DAY FOR 110 WK (STUDY DURATION: 111 WK), Tumor Site: Type of Lesion: LIVER: HEPATOCELLULAR NEOPLASM, PANCREAS: ISLET CELL ADENOMA): equivocal

Reference: PubChem BioAssay AID1259411 (Chemical Carcinogenesis Research Information System (CCRIS), 2018)
